What was measured:
[1] = Blood concentration measurement of orally-administrated mice; assay type: in vivo, C57BL/6JNifdc mice; details: C57BL/6JNifdc, mouse, plasma, oral, 30 mg/kg
Protocol: The C57BL/6JNifdc mice used in this experiment were provided by Zhejiang Vital River Laboratory Animal Technology Co., Ltd. The compounds were dissolved in DMSO/Solutol/Saline (v/v/v=10/10/80) as a stock solution (3 mg/mL). The stock solution was administrated orally to 6 C57BL/6JNifdc mice at a dose of 30 mg/kg. Blood was collected from the orbital venous plexus at 0.5 h, 1 h, 1.5 h, and 2 h after oral administration.
Approximately 200 μL of blood samples were collected into EDTAK2 Blood Collection tubes and then immediately centrifuged at 10,000 rpm for 5 min. 66 μL of plasma supernatant was added with 198 μL of acetonitrile (Energy), the resulting mixture was shaken on a vortex for 5 min, and then immediately centrifuged at 13000 rpm for 8 min. 200 μL of supernatant was taken for blood compound concentration measurement.
The compound was accurately weighed and dissolved in acetonitrile to a concentration of 100 μg/mL. 50 μL of compound was pipetted and added to 4.95 mL of acetonitrile/water (v/v=3/1) solution to obtain 1000 ng/mL mother liquid. 650 μL of the mother liquid was taken and sequentially diluted with a solution of acetonitrile/water (v/v=3/1) in a 2-fold gradient to obtain standard samples with various concentrations of 500 ng/mL, 250 ng/mL, 125 ng/mL, 62.5 ng/mL, and 31.25 ng/mL.
Standard solutions with concentrations of 1000 ng/mL, 500 ng/mL, 250 ng/mL, 125 ng/mL, 62.5 ng/mL, and 31.25 ng/mL were measured by using LC-MS (LC-MS 2020+LC-2030 Plus, Shimadzu) SIM mode to obtain a calibration curve. The treated blood samples were measured by this method and then subjected to quantitative analysis by using the calibration curve to obtain compound concentration data of each treated blood sample.
The data were exported and the average blood compound concentration at each sampling time was calculated.
Blood compound concentration=compound concentration in treated blood sample×4/molecular weight of the compound. The average blood compound concentration is the average of the compound concentrations in the blood at each sampling time.

[2] = background statement; cannot be used orally; cited from earlier work
[3] = target: T1, β5c subunit of the 20S proteasome (Homo sapiens, UniProt P20618+P28074); test: Proteasome inhibitory activity, β5c subunit (Raji cells treated with compound, lysed, Suc-LLVY-AMC substrate); assay type: cell-based; details: proteasome from Raji cells incubated with compound 4 h
T1 construct: The proteasome tested in the present disclosure was derived from Raji cells; endogenous in cells; host or cells: Raji cells
Outline: (§1)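 Raji cells were treated for 4 h at 37 °C with compound (from 1 μM, 3-fold, 8 concentrations), then lysed. Lysate activity was read 10 min at 37 °C with Ac-ANW-AMC (β5i) or Suc-LLVY-AMC (β5c) at 345/445 nm. Percent inhibition was relative to DMSO-treated lysate.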

[4] = target: T2, β5i subunit of the 20S proteasome (Homo sapiens, UniProt P20618+P28062); test: Proteasome inhibitory activity, β5i subunit (Raji cells treated with compound, lysed, Ac-ANW-AMC substrate); assay type: cell-based; details: proteasome from Raji cells incubated with compound 4 h
T2 construct: The proteasome tested in the present disclosure was derived from Raji cells; endogenous in cells; host or cells: Raji cells
Outline: as §1

[5] = test system: MM.1S cell strain; test: Inhibitory activity of cell strain (CellTiter-Glo); assay type: cell-based; details: Homo sapiens, MM1.S, 72 h incubation
Outline: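 Cells seeded at 1×10^5 per well in RPMI1640 complete medium for 24 h, then treated 72 h at 37 °C, 5% CO2 with 3-fold dilutions, final 5×10^−7 M down to 2.29×10^−10 M. CellTiter-Glo luminescence; inhibition calculated against DMSO-only cells and medium-only blanks.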

Compound	concentration at 0.5 h ([1]; 0.5 h, read-out: Average blood compound concentration (μM) 0.5 h)	concentration at 1 h ([1]; 1.0 h, read-out: Average blood compound concentration (μM) 1.0 h)	concentration at 1.5 h ([1]; 1.5 h, read-out: Average blood compound concentration (μM) 1.5 h)	concentration at 2 h ([1]; 2.0 h, read-out: Average blood compound concentration (μM) 2.0 h)	IC50 [3]	IC50 [4]	IC50 [5]	bioavailability (oral) [2]
CC(C)C[C@H](NC(=O)[C@H](Cc1ccccc1)NC(=O)c1cnccn1)B(O)O [Bortezomib, bortezomib, reference compound]	2 µM	1.3 µM	1 µM	0.9 µM	–	–	–	low bioavailability
CC(C(=O)NCc1ccc(Cl)cc1Cl)C(=O)N[C@@H](Cc1coc2ccccc12)B(O)O (stereo partly drawn) [Example 60, ((1R)-2-(benzofuran-3-yl)-1-(3-((2,4-dichlorobenzyl)amino)-2-methyl-3-oxopropionamido)ethyl) boric acid]	–	–	–	–	≤ 50 nM	≤ 50 nM	≤ 50 nM	–
Cc1ccc(C[C@H](NC(=O)CC(=O)NCc2cccc(-c3ccccc3)c2)B(O)O)cc1 [Example 27, (R)-(1-(3-(([1,1′-biphenyl]-3-ylmethyl)amino)-3-oxopropionamido)-2-(p-tolyl)ethyl)boric acid]	–	–	–	–	≤ 50 nM	≤ 50 nM	≤ 50 nM	–
CC(C(=O)NCc1cccc(-c2ccccc2)n1)C(=O)N[C@@H](Cc1coc2ccccc12)B(O)O (stereo partly drawn) [Example 57, ((1R)-2-(benzofuran-3-yl)-1-(2-methyl-3-oxo-3-(((6-phenylpyridin-2-yl)methyl)amino)propionamido)ethyl)boric acid]	–	–	–	–	≤ 50 nM	≤ 50 nM	≤ 50 nM	–
COc1cccc(CNC(=O)C(CC2CC2)C(=O)N[C@@H](Cc2coc3ccccc23)B(O)O)c1 (stereo partly drawn) [Example 81, ((1R)-2-(benzofuran-3-yl)-1-(2-(cyclopropylmethyl)-3-((3-methoxybenzyl)amino)-3-oxopropionamido)ethyl)boric acid]	–	–	–	–	≤ 50 nM	≤ 50 nM	≤ 50 nM	–

Further lines, with some results ahead:

concentration at 0.5 h ([1]; 0.5 h, read-out: Average blood compound concentration (μM) 0.5 h)	concentration at 1 h ([1]; 1.0 h, read-out: Average blood compound concentration (μM) 1.0 h)	concentration at 1.5 h ([1]; 1.5 h, read-out: Average blood compound concentration (μM) 1.5 h)	concentration at 2 h ([1]; 2.0 h, read-out: Average blood compound concentration (μM) 2.0 h)	IC50 [3]	IC50 [4]	IC50 [5]	Compound	bioavailability (oral) [2]
–	–	–	–	50 to 200 nM	50 to 200 nM	50 to 200 nM	CC(C(=O)NCc1cccc(-c2ccccc2)n1)C(=O)N[C@@H](Cc1ccccc1)B(O)O (stereo partly drawn) [Example 1, ((1R)-1-(2-methyl-3-oxo-3-(((6-phenylpyridin-2-yl)methyl)amino)propionylamino)-2-phenylethyl)boric acid]	–
–	–	–	–	≤ 50 nM	≤ 50 nM	≤ 50 nM	COc1cccc(CNC(=O)C(Cc2ccccc2)C(=O)N[C@@H](CC(C)C)B(O)O)c1 (stereo partly drawn) [Example 66, ((1R)-1-(2-benzyl-3-((3-methoxybenzyl)amino)-3-oxopropionamido)-3-methylbutyl)boronic acid]	–
–	–	–	–	≤ 50 nM	≤ 50 nM	≤ 50 nM	COc1cccc(CNC(=O)CC(=O)N[C@@H](Cc2ccccc2)B(O)O)c1 [Example 49, (R)-(1-(3-((3-methoxybenzyl)amino)-3-oxopropionylamino)-2-phenylethyl)boric acid]	–
–	–	–	–	≤ 50 nM	≤ 50 nM	50 to 200 nM	CC(C(=O)NCc1ccccc1)C(=O)N[C@@H](Cc1ccccc1)B(O)O (stereo partly drawn) [Example 29, ((1R)-1-(3-(benzylamino)-2-methyl-3-oxopropionamido)-2-phenylethyl)boric acid]	–

Reference: patent US20250346613A1, “BORIC ACID PROTEASOME INHIBITOR AND USE THEREOF” (ARTIVILA BIOPHARMA, priority 2022, published 2025)
